The text below walks through data of patent EP1019392B1, “TRICYCLIC AMIDES USEFUL FOR INHIBITION OF G-PROTEIN FUNCTION AND FOR TREATMENT OF PROLIFERATIVE DISEASES” (SCHERING CORPORATION, priority 1995, dated 1997).

SMILES strings stand for the structures.

For assay [1], the target named is T1, geranylgeranyl protein transferase (GGPT) I (Rattus norvegicus, UniProt P53610+Q04631).
T1 construct: geranylgeranyl protein transferase (GGPT) I were partially purified from rat brain; from tissue; host or cells: rat brain
Description: In vitro enzyme assay: inhibition of geranylgeranyl protein transferase I (Ras-CVLL as acceptor). It is filed as biochemical. As to conditions: Table 2; Ras-CVLL as isoprenoid acceptor. From the text: • 1. In vitro enzyme assays: Inhibition of farnesyl protein transferase and geranylgeranyl protein transferase. Both farnesyl protein transferase (FPT) and geranylgeranyl protein transferase (GGPT) I were partially purified from rat brain by ammonium sulfate fractionation followed by Q-Sepharose (Pharmacia, Inc.) anion exchange chromatography essentially as described by Yokoyama et al (Yokoyama, K., et al., (1991), A protein geranylgeranyltransferase from bovine brain: Implications for protein prenylation specificity, Proc. Natl. Acad. Sci USA 88: 5302-5306, the disclosure of which is incorporated herein by reference thereto). Human farnesyl protein transferase was also expressed in E. coli, using cDNA clones encoding both the a and b subunits. The methods used were similar to those published (Omer, C. et al., (1993), Characterization of recombinant human farnesyl protein transferase: Cloning, expression, farnesyl diphosphate binding, and functional homology with yeast prenyl-protein transferases, Biochemistry 32:5167-5176). Human farnesyl protein transferase was partially-purified from the soluble protein fraction of E. coli as described above. The tricyclic farnesyl protein transferase inhibitors disclosed herein inhibited both human and rat enzyme with similar potencies. Two forms of val^12-Ha-Ras protein were prepared as substrates for these enzymes, differing in their carboxy terminal sequence. One form terminated in cysteine-valine-leucine-serine (Ras-CVLS) the other in cystein-valine-leucine-leucine (Ras-CVLL). Ras-CVLS is a substrate for the farnesyl protein transferase while Ras-CVLL is a substrate for geranylgeranyl protein transferase I. The cDNAs encoding these proteins were constructed so that the proteins contain an amino-terminal extension of 6 histidine residues. Both proteins were expressed in Escherichia coli and purified using metal chelate affinity chromatography. The radiolabelled isoprenyl pyrophosphate substrates, [^3H]farnesyl pyrophosphate and [^3H]geranylgeranyl pyrophosphate, were purchased from DuPont/New England Nuclear. Several methods for measuring farnesyl protein transferase activity have been described (Reiss et al 1990, Cell 62: 81; Schaber et al 1990, J. Biol. Chem. 265: 14701; Manne et al 1990, PNAS 87: 7541; and Barbacid & Manne 1993, U.S. Patent No. 5,185,248). The activity was assayed by measuring the transfer of [^3H]farnesyl from [^3H]farnesyl pyrophosphate to Ras-CVLS using conditions similar to those described by Reiss et al. 1990 (Cell 62: 81) The reaction mixture contained 40 mM Hepes, pH 7.5; 20 mM magnesium chloride; 5 mM dithiothreitol; 0.25 µM [^3H]farnesyl pyrophosphate; […] Q-Sepharose-purified farnesyl protein transferase; the indicated concentration of tricyclic compound or dimethylsulfoxide (DMSO) vehicle control (5% DMSO final); and […] Ras-CVLS in a total volume of […]. The reaction was allowed to proceed for 30 minutes at room temperature and then stopped with 0.5 ml of 4% sodium dodecyl sulfate (SDS) followed by 0.5 ml of cold 30% TCA. Samples were allowed to sit on ice for 45 minutes and precipitated Ras protein was then collected on GF/C filter paper mats using a Brandel cell harvester. Filter mats were washed once with 6% TCA, 2% SDS and radioactivity was measured in a Wallac 1204 Betaplate BS liquid scintillation counter. Percent inhibition was calculated relative to the DMSO vehicle control. The geranylgeranyl protein transferase I assay was essentially identical to the farnesyl protein transferase assay described above, with two exceptions: [^3H]geranylgeranylpyrophosphate replaced farnesyl pyrophosphate as the isoprenoid donor and Ras-CVLL was the protein acceptor. This is similar to the assay reported by Casey et al (Casey, P.J., et al., (1991), Enzymatic modification of proteins with a geranylgeranyl isoprenoid, Proc. Natl. Acad. Sci, USA 88: 8631-8635, the disclosure of which is incorporated herein by reference thereto). • 2. […]

Assay [2] deals with T24-BAG4 human bladder carcinoma cells expressing an activated H-ras gene. Description: Cell Mat Assay, T24 tumor cells. It is filed as cell-based. As to conditions: Homo sapiens, read-out: Tumor (T-24) IC50.
The test system of assay [3] is DLD-1 (human colon carcinoma cells, ATCC # CCL 221). Description: In Vivo Anti-Tumor Studies, subcutaneous DLD-1 tumors. Also on record: species or system athymic nu/nu female mice. As to conditions: Mus musculus, DLD-1, po, QID, 4 weeks, range over the listed compounds; for inhibition in vivo at 10 mg/kg: 10 mg/kg p.o.; for inhibition in vivo at 50 mg/kg: 50 mg/kg p.o. From the text:
Tumor cells (5 X 10^5 to 8 X 10^6) of DLD-1 (human colon carcinoma cells, ATCC # CCL 221) are innolculated subcutaneously into the flank of 5-6 week o;d athymic nu/nu female mice.

The test system of assay [4] is DLD-1-BAG human colon carcinoma cells expressing as activated K-ras gene. The assay is described as follows: Cell Mat Assay, DLD-1 tumor cells. It is filed as cell-based.
Assay [5] concerns Normal human HEPM fibroblasts. Description: Cell Mat Assay, normal cell mat. It is filed as cell-based. As to conditions: Homo sapiens, Fibroblast, normal monolayer.

The term IC50 denotes the concentration at which inhibition is half-maximal. The term inhibition in vivo denotes how much of the control response was suppressed. The compound `NC(=O)N1CCC(CC(=O)N2CCC(C3c4ccc(Cl)c(Br)c4CCc4cc(Br)cnc43)CC2)CC1` (single isomer, unassigned) [Example 13] yielded an IC50 in assay [1] above 63 µM. For the same compound, in assay [2], the half-maximal inhibitory concentration (IC50) was below 1.6 µM. In assay [3], this compound registered an inhibition in vivo at 10 mg/kg of 7 to 50% and an inhibition in vivo at 50 mg/kg of 35.4 to 83%.
With `O=C(Cc1cc[n+]([O-])cc1)N1CCC(C2c3ccc(Cl)c(Br)c3CCc3cc(Br)cnc32)CC1` (single isomer, unassigned) [Example 14A], the IC50 is above 62 µM in assay [1]; below 1.6 µM in assay [2]; 6.25 µM in assay [4] (Homo sapiens, DLD-1, Mat assay); above 25 µM in assay [5]. The same compound returned an inhibition in vivo at 10 mg/kg in assay [3] of 7 to 50%. Moreover, the inhibition in vivo at 50 mg/kg in assay [3] is 35.4 to 83%.
`NC(=O)N1CCC(CC(=O)N2CCC(C3c4ncc(Br)cc4CCc4cc(Cl)cc(Cl)c43)CC2)CC1` (single isomer, unassigned) [Example 18] returned an IC50 in assay [1] above 50 µM. In assay [3], this compound had an inhibition in vivo at 10 mg/kg of 7 to 50% and an inhibition in vivo at 50 mg/kg of 35.4 to 83%.
Regarding `O=C(Cc1cc[n+]([O-])cc1)N1CCN([C@H]2c3ccc(Cl)c(Br)c3CCc3cc(Br)cnc32)CC1` [Example 5], the IC50 is above 66 µM in assay [1]; below 1.6 µM in assay [2]; 3.1 µM in assay [4] (Homo sapiens, DLD-1, Mat assay); above 25 µM in assay [5]. Moreover, the inhibition in vivo at 10 mg/kg in assay [3] lay in the range of 7 to 50%. In assay [3], this compound gave an inhibition in vivo at 50 mg/kg of 35.4 to 83%.
As for `O=C(Cc1cc[n+]([O-])cc1)N1CCC(=C2c3ncc(Br)cc3CCc3cc(Cl)cc(Br)c32)CC1` (racemic) [Example 7], the IC50 in assay [1] was above 300 µM; in assay [2], below 1.6 µM; in assay [5] it was above 25 µM. The inhibition in vivo at 10 mg/kg in assay [3] was in the range of 7 to 50%. Besides, the inhibition in vivo at 50 mg/kg in assay [3] is 35.4 to 83%.
In the case of `O=C(Cc1cc[n+]([O-])cc1)N1CCN([C@H]2c3ccc(Cl)cc3CCc3cc(Br)cnc32)CC1` [Example 16B], the half-inhibitory concentration (IC50) is above 76 µM in assay [1]; below 1.6 µM in assay [2]; 6.25 µM in assay [4] (Homo sapiens, DLD-1, Mat assay); above 25 µM in assay [5]. For the same compound, in assay [3], the inhibition in vivo at 10 mg/kg was 7 to 50%. The compound further returned an inhibition in vivo at 50 mg/kg in assay [3] of 35.4 to 83%.
With `O=C(Cc1cc[n+]([O-])cc1)N1CCN([C@@H]2c3ccc(Cl)cc3CCc3cc(Br)cnc32)CC1` [Example 16A], in assay [1], the IC50 is above 38 µM.
Regarding `O=C(Cc1cc[n+]([O-])cc1)N1CCN([C@H]2c3ncc(Br)cc3CCc3cc(Cl)cc(Br)c32)CC1` [Example 11A], the IC50 in assay [1] was above 66 µM; in assay [2] it was below 1.6 µM; in assay [4] (Mat assay) it was below 1.6 µM; in assay [5], above 25 µM. The inhibition in vivo at 10 mg/kg in assay [3] was in the range of 7 to 50%. This compound also came in with an inhibition in vivo at 50 mg/kg in assay [3] of 35.4 to 83%.
In the case of `O=C(Cc1cc[n+]([O-])cc1)N1CCC(=C2c3ccc(Cl)c(Br)c3CCc3cc(Br)cnc32)CC1` [Example 2], the IC50 in assay [1] is above 300 µM; in assay [2], below 1.6 µM; in assay [4] (Homo sapiens, DLD-1, Mat assay), 6.25 µM; in assay [5], above 25 µM. In addition, the inhibition in vivo at 10 mg/kg in assay [3] was 7 to 50%. In addition, the inhibition in vivo at 50 mg/kg in assay [3] was in the range of 35.4 to 83%.
`O=C(Cc1cc[n+]([O-])cc1)N1CCC([C@H]2c3ncc(Br)cc3CCc3cc(Cl)cc(Br)c32)CC1` [Example 9]: the half-inhibitory concentration (IC50) in assay [1] is above 59 µM; in assay [2], below 1.6 µM; in assay [4] (Homo sapiens, DLD-1, Mat assay) it was below 1.6 µM; in assay [5], above 25 µM. For the same compound, the inhibition in vivo at 10 mg/kg in assay [3] was 7 to 50%. The inhibition in vivo at 50 mg/kg in assay [3] was in the range of 35.4 to 83%.
